According to patent US12522612B2, “PDE4 inhibitors, pharmaceutical compositions, and therapeutic applications” (BioTheryX, Inc., priority 2019, dated 2026):

Key:
TNF-α = assay: Cell-based TNF-α inhibition assay in LPS-induced PBMCs (Meso Scale); details: PBMC, PBMCs pretreated 1 h, LPS 100 ng/mL 18-24 h, relative to stimulated DMSO control; for inhibition at 1 µM: compound concentration 1 μM
How it was run: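 Thawed human PBMCs (200,000/well) in RPMI/10% FBS were pretreated with compound or DMSO for 1 h, then stimulated with LPS (100 ng/mL) for 18-24 h. Supernatant TNF-α was measured by Meso Scale; activity expressed as percent of stimulated DMSO control (percent inhibition).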

PDE4B = biological target: T1, PDE4B (Homo sapiens, UniProt Q07343); assay: Protein degradation assay in A549 cells, western blot, PDE4B; format: cell-based; details: 24 h treatment, read-out: PDE4B degradation relative to DMSO
T1 construct: Whole cell extracts were prepared using an immunoprecipitation (IP) lysis buffer; endogenous in cells; host or cells: A549
Description: (§1) A549 cells were grown in RPMI 1640 media supplemented with 10% fetal bovine serum, streptomycin, and penicillin. The cells were plated in 6-well plates in the growth media. The next day, fresh growth media were replaced on the cells. The cells were then treated with a compound for 24 h at predetermined concentrations. Whole cell extracts were prepared using an immunoprecipitation (IP) lysis buffer. Briefly, the cells were washed once in PBS, and the cell pellets were resuspended in the IP lysis buffer and incubated for 15 min on ice. Cells debris was removed by centrifugation and the cleared whole cell lysates were transferred to new tubes for further analysis.
(§2) For a western blot analysis, the whole cell protein extracts were separated on 4-12% SDS-polyacrylamide gels, transferred to nitrocellulose, and probed with primary antibodies. Membranes were subsequently washed and probed with IRDYE® secondary antibodies. The signals were detected using an ODYSSEY® Imaging System. The antibodies used in the assay included anti-PDE4B antibody; anti-PDE4D antibodies (top, bottom, and short isoform); β-actin mouse monoclonal antibody; IRDYE® 680RD goat anti-rabbit antibody; and IRDYE® 800CW goat anti-mouse antibody. Compounds B2 to B4, B18, B49 to B52, B76, B77, B79, B81 to B83, B88, B89, and B91 were determined to be able to degradate PDE4B as high as about 50% relative to DMSO.

PDE4D short isoform = assay: Protein degradation assay in A549 cells, western blot, PDE4D; format: cell-based; details: 24 h treatment, same conditions
Description: as §1, §2

T1 sequence (Q07343 whole entry): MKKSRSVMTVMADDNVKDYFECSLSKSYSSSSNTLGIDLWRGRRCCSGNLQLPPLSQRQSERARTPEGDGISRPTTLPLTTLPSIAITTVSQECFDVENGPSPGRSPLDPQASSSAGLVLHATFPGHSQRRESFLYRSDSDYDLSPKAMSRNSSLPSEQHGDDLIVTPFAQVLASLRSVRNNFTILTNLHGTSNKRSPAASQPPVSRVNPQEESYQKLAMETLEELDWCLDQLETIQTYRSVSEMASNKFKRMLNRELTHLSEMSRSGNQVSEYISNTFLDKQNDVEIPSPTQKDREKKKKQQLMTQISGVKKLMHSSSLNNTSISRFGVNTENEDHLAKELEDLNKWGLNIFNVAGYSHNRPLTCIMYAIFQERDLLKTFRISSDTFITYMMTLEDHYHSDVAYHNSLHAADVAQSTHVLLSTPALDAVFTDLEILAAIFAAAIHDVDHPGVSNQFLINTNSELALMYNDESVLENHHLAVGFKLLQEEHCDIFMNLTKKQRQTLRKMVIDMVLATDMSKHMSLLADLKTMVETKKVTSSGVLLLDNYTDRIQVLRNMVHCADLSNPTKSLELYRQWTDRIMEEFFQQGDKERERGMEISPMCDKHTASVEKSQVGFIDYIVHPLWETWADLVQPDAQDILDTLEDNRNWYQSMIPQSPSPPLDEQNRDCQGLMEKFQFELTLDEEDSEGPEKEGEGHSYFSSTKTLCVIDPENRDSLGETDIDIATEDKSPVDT

| Dmax (PDE4B) [%] | SMILES | inhibition at 0.1 µM (TNF-α; compound concentration 0.1 μM) [%] | inhibition at 1 µM (TNF-α) [%] | PDE4D degradation (result in words) (PDE4D short isoform) |
| --- | --- | --- | --- | --- |
| ≤ 50 | CCOc1cc([C@@H](CS(C)(=O)=O)N2C(=O)c3cc(CCCCCCCCCCCCN4CCC(c5cc(F)cc6c5CN(C5CCC(=O)NC5=O)C6=O)CC4)cc(NC(C)=O)c3C2=O)ccc1OC (stereo partly drawn) [Compound B79, N-(6-(12-(4-(2-(2,6-Dioxopiperidin-3-yl)-6-fluoro-1-oxoisoindolin-4-yl)piperidin-1-yl)dodecyl)-2-((S)-1-(3-ethoxy-4-methoxyphenyl)-2-(methylsulfonyl)ethyl)-1,3-dioxoisoindolin-4-yl)acetamide] | ≥ 60 | ≥ 60 |  |
| ≤ 50 | O=C1CCC(N2Cc3c(cc(F)cc3C3CCN(CCCOc4cc(C(=O)Nc5c(Cl)cncc5Cl)ccc4OC(F)F)CC3)C2=O)C(=O)N1 (stereo not drawn) [Compound B83, N-(3,5-Dichloropyridin-4-yl)-4-(difluoromethoxy)-3-(3-(4-(2-(2,6-dioxopiperidin-3-yl)-6-fluoro-1-oxoisoindolin-4-yl)piperidin-1-yl)propoxy)benzamide] |  | 20 to 40 |  |
|  | CCOc1cc([C@@H](CS(C)(=O)=O)N2C(=O)c3cccc(NC(C)=O)c3C2=O)ccc1OC [apremilast] |  |  | did not degradate the PDE4D |
